Test results: PubChem BioAssay (NCI)
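Dose response: 5 concentrations. Exposure: 48 h. Format: 96-well plates. Endpoint: linear interpolation; highest concentration if not reached. GI50 = concentration required for 50% inhibition of growth. The concentration for full growth arrest is given as TGI.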

Key:
Test in all cases: NCI-60 cell line screen, 48 h
A549 NSCLC = tested on: A549 NSCLC
ACHN renal = tested on: ACHN renal
M14 melanoma = tested on: M14 melanoma
NCI/ADR-RES ovarian = tested on: NCI/ADR-RES ovarian
OVCAR-3 ovarian = tested on: OVCAR-3 ovarian
OVCAR-4 ovarian = tested on: OVCAR-4 ovarian
RXF 393 renal = tested on: RXF 393 renal
SK-MEL-2 melanoma = tested on: SK-MEL-2 melanoma
SK-MEL-28 melanoma = tested on: SK-MEL-28 melanoma
SNB-19 CNS = tested on: SNB-19 CNS

| SMILES | GI50 (A549 NSCLC) | TGI (A549 NSCLC) | GI50 (ACHN renal) | TGI (ACHN renal) | GI50 (M14 melanoma) | TGI (M14 melanoma) | GI50 (NCI/ADR-RES ovarian) | TGI (NCI/ADR-RES ovarian) | GI50 (OVCAR-3 ovarian) | TGI (OVCAR-3 ovarian) | GI50 (OVCAR-4 ovarian) | TGI (OVCAR-4 ovarian) | GI50 (RXF 393 renal) | TGI (RXF 393 renal) | GI50 (SK-MEL-2 melanoma) | TGI (SK-MEL-2 melanoma) | GI50 (SK-MEL-28 melanoma) | TGI (SK-MEL-28 melanoma) | GI50 (SNB-19 CNS) | TGI (SNB-19 CNS) |
| --- | --- | --- | --- | --- | --- | --- | --- | --- | --- | --- | --- | --- | --- | --- | --- | --- | --- | --- | --- | --- |
| COc1ccc2c(c1)sc1nc(-c3ccccc3)c(-c3ccc(O)c(OC)c3)n12 | 9.91 µM | > 100 µM | 38.9 µM | > 100 µM | 4.34 µM | > 100 µM | 4.55 µM | > 100 µM | 10.1 µM | 63.8 µM | 39.1 µM | > 100 µM | 4.9 µM | 29.8 µM | 21.3 µM | > 100 µM | 8.99 µM | > 100 µM | 32.5 µM | > 100 µM |
| COC(=O)c1ccc2c(c1)C(=O)c1c-2n(CCCN)c(=O)c2cc([N+](=O)[O-])ccc12 | < 0.03 µM | 0.894 µM | < 0.01 µM | 0.204 µM | < 0.0222 µM | 0.46 µM | < 0.029 µM | 0.682 µM | 0.242 µM | 1.55 µM |  | 0.647 µM | < 0.0345 µM | 0.118 µM |  | 0.519 µM |  | 0.81 µM | < 0.0205 µM | 1.87 µM |
| NC(CSc1nc2ccccn2c1[N+](=O)[O-])C(=O)O (configuration not stated) |  | > 100 µM |  | > 100 µM |  | > 100 µM |  | > 100 µM |  | > 100 µM |  | > 100 µM |  | > 100 µM |  | > 100 µM |  | > 100 µM |  | > 100 µM |
| O=C(O)C[O][Sb][O]CC(=O)O | > 100 µM | > 100 µM | > 100 µM | > 100 µM | > 100 µM | > 100 µM | > 100 µM | > 100 µM | > 100 µM | > 100 µM | > 100 µM | > 100 µM | > 100 µM | > 100 µM | > 100 µM | > 100 µM | > 100 µM | > 100 µM | > 100 µM | > 100 µM |
| C=CC(=O)N1CCC([C@@H]2CCNc3c(C(N)=O)c(-c4ccc(Oc5ccccc5)cc4)nn32)CC1 | 13.2 µM | > 100 µM | 2.34 µM | > 62.6 µM | 14.4 µM | 31.9 µM | 17.8 µM | > 96.6 µM | 11 µM | 32 µM | 13.5 µM | 97.2 µM | 9.05 µM | 25.5 µM | 18.2 µM | 40 µM | 15.6 µM | 30.6 µM | 16.9 µM | > 100 µM |
| ICCC(c1ccccc1)(c1ccccc1)c1ccccc1 | 5.92 µM | 19.6 µM | 12 µM | 24.8 µM | 1.92 µM | 3.72 µM | 11.1 µM | 29.5 µM | 3.85 µM | 15 µM | 11.6 µM | 30.8 µM | 8.9 µM | 22.8 µM | 4.18 µM | 13.7 µM | 3.4 µM | 12.5 µM | 14.4 µM | 31.1 µM |
| CO[C@H]1C[C@@H]2CC[C@@H](C)[C@@](O)(O2)C(=O)C(=O)N2CCCC[C@H]2C(=O)O[C@H]([C@H](C)C[C@@H]2CC[C@@H](OP(C)(C)=O)[C@H](OC)C2)CC(=O)[C@H](C)/C=C(\C)[C@@H](O)[C@@H](OC)C(=O)[C@H](C)C[C@H](C)/C=C/C=C/C=C/1C | < 0.01 µM | 20.7 µM | 0.411 µM | 21.5 µM | 11.8 µM | 26 µM | 11 µM | 30.8 µM | 11.1 µM | 23.3 µM | 0.698 µM | 21.3 µM | < 0.01 µM | 16.4 µM | 2.31 µM | 22.4 µM | 11 µM | 23.8 µM | 7.03 µM | 23.5 µM |
| CC[C@H](C)[C@H](NC(=O)Nc1ccccc1)C(=O)N(C)[C@H](C[C@@H](OC(C)=O)c1nc(C(=O)N[C@@H](Cc2ccccc2)C[C@H](C)C(=O)OC)cs1)C(C)C | 7.49 µM | > 100 µM | 8.09 µM | > 100 µM | 2.19 µM | 5.84 µM | 54.2 µM | > 100 µM | 2.32 µM | 5.96 µM | 6.06 µM | > 100 µM | 1.95 µM | 7.25 µM | 3.17 µM | > 100 µM | > 100 µM | > 100 µM | 5.05 µM | > 100 µM |
| O=C(O)c1ccc(NCc2nc3cc4ccccc4cc3[nH]2)cc1 |  | > 100 µM |  | > 100 µM |  | > 100 µM |  | > 100 µM |  | > 100 µM |  | > 100 µM |  | > 100 µM |  | > 86.3 µM |  | > 85.2 µM |  | > 100 µM |
| c1ccc(-c2nnc(Nc3ccc4c(c3)OCCO4)o2)c(NCc2ccncc2)c1 | 0.0388 µM | 15.4 µM | 0.0784 µM | 14.4 µM | 0.0223 µM | 0.273 µM | 0.0162 µM | > 51.3 µM | 0.021 µM | 0.0504 µM | 0.0818 µM | 21.9 µM | < 0.01 µM | 0.0421 µM | 0.16 µM | 22.3 µM | 0.0411 µM | 39 µM | 0.0536 µM | > 100 µM |
| S=C=NCc1ccccc1 |  | 17.9 µM |  | 12.7 µM |  | 5.81 µM |  | > 32 µM |  | 11.3 µM |  | 13.8 µM |  | 3.18 µM |  | > 59 µM |  | 10.2 µM |  | 13.1 µM |
| CN1CCN(Cc2ccc(NC(=O)c3nc4ccc5[nH]ncc5c4c4c3CCC4)cc2C(F)(F)F)CC1 | 0.92 µM | 1.83 µM | 0.861 µM | 1.55 µM | 0.934 µM | 1.76 µM | 0.931 µM | 2.14 µM | 0.904 µM | 1.68 µM | 0.911 µM | 1.98 µM | 1.19 µM | 4.37 µM | 1.16 µM | 2.49 µM | 0.899 µM | 1.62 µM | 0.976 µM | 2.11 µM |
| CN(C)CCNC(=O)Cn1ccc(=O)c2ccc([N+](=O)[O-])cc21 |  | > 100 µM |  | > 100 µM |  | > 100 µM |  | > 100 µM |  | > 100 µM |  | > 100 µM |  | > 100 µM |  | > 100 µM |  | > 100 µM |  | > 100 µM |
| C/C1=C\C/C=C(\C)[C@H]2CC(CC/C(C)=C/CC1)[C@@](C)(CO)O2 | > 100 µM | > 100 µM | > 100 µM | > 100 µM | 71.7 µM | > 100 µM | > 100 µM | > 100 µM | > 100 µM | > 100 µM | > 100 µM | > 100 µM | > 100 µM | > 100 µM | 44.9 µM | > 100 µM | > 100 µM | > 100 µM | > 100 µM | > 100 µM |
